# In PubChem BioAssay (NCI):
#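 These data come from cells grown in 96-well plates and exposed to compound for 48 hours at five concentrations. GI50 marks 50% less growth. At the TGI there is no net growth.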
# What was measured:
# Test in all cases: NCI anticancer screen, dose series, 48 h
# [1] = tested on: NCI-H460 lung
# [2] = tested on: MALME-3M melanoma
# [3] = tested on: UO-31 renal
# [4] = tested on: SK-MEL-2 melanoma
# [5] = tested on: UACC-62 melanoma
# [6] = tested on: HL-60(TB) leukemia
# [7] = tested on: ACHN renal
# [8] = tested on: M14 melanoma
# [9] = tested on: HT29 colon
# [10] = tested on: OVCAR-8 ovarian
# [11] = tested on: EKVX NSCLC
# [12] = tested on: NCI-H226 lung
Structure (SMILES),TGI [1] [µM],TGI [2] [µM],TGI [3] [µM],TGI [4] [µM],TGI [5] [µM],TGI [6] [µM],TGI [7] [µM],TGI [8] [µM],TGI [9] [µM],TGI [10] [µM],TGI [11] [µM],TGI [12] [µM],GI50 [2] [µM],GI50 [3] [µM],GI50 [6] [µM],GI50 [7] [µM],GI50 [9] [µM],GI50 [11] [µM]
c1ncc(C23C4C5C6C4C2C6C53)[nH]1 (configuration not stated),> 100,> 100,> 100,> 100,> 100,> 100,> 100,> 100,> 100,> 100,> 100,> 100,,,,,,
CCOC(=O)c1c(C)n(-c2ccc(C)cc2)c2c1cc(O)c1[nH]c3c(c12)CCCC3,84.5,37,27.9,33.7,46.7,51.7,> 100,42.6,32.3,82.3,99.7,60,,,,,,
N=C1SCCS1,> 100,> 100,> 100,> 100,> 100,> 100,> 100,> 100,> 100,> 100,> 100,> 100,,,,,,
COC(=O)/C=C1/OC(c2ccccc2)=CC1=O,43.5,34.9,31.7,47.9,40,6.14,> 56,51.5,39,35.8,> 62.2,67.3,,,,,,
COc1ccc([N+](=O)[O-])cc1[I+]c1cc([N+](=O)[O-])ccc1OC,80.3,17.1,> 100,> 100,94.8,97.6,> 100,> 100,> 100,> 100,> 100,> 100,,,,,,
COC(=O)[C@H]1[C@H](OC(=O)[C@@H](OC)c2ccccc2)ON2CC[C@@H](OC(=O)c3ccccc3)[C@H]12,> 100,> 100,> 100,> 100,28,> 100,25.6,> 100,> 100,> 100,> 100,> 100,,,,,,
COc1cc(O)c2c(=O)cc(C3(OC(C)=O)C=CC(OC4OC(CO)C(O)C(O)C4O)C=C3)oc2c1 (configuration not stated),> 100,> 100,> 100,> 100,> 100,> 100,> 100,> 100,> 100,> 100,> 100,> 100,,,,,,
CCOC(=O)/C(C#N)=N\Nc1ccc(-n2c(C)nc3ccc(Br)cc3c2=O)cc1,> 100,,> 100,> 100,> 100,> 100,> 100,> 100,> 100,> 100,> 100,> 100,,,,,,
Cc1ccc(NC(=O)c2cc(S(=O)(=O)N3CCNNC3=O)c(S)cc2Cl)cc1,> 100,> 100,> 100,> 100,> 100,> 100,> 100,> 100,,> 100,> 100,> 100,,,,,,
O=C1NCC2=C1CCC1c3ccccc3CCN21 (configuration not stated),> 100,> 100,> 100,> 100,> 100,> 100,> 100,,> 100,> 100,> 100,> 100,,,,,,
O=C(CC(C(=O)c1ccsc1)c1cccs1)c1ccsc1 (configuration not stated),> 100,> 100,> 100,> 100,> 100,> 100,> 100,> 100,> 100,> 100,> 100,> 100,,,,,,
CC[n+]1c(/C=C/c2ccc(N(CCCl)CCCl)cc2)ccc2cc(Br)ccc21,11.4,,,1.28,7.55,,,4.19,,10.4,,7.48,84,1470,86.2,1060,548,1060
CCCCC[C@H]1CC=CC(=O)O1,21.2,33.9,24,19.1,23,20.3,43.6,26.7,19.8,24.8,56.7,23.9,,,,,,
ClCc1nc2cc(Cl)ccc2o1,31.6,27.3,2.54,16,23.1,21.1,3.33,17.4,6.5,20,8.89,42.9,,,,,,
CSC(=S)Nc1cc(C)ccn1,> 100,> 100,> 100,> 100,> 100,> 100,> 100,> 100,> 100,> 100,> 100,> 100,,,,,,
COc1ccc(C(c2ccccc2)N2C(=O)CCC2C(=O)O)cc1OC (configuration not stated),> 100,> 100,> 100,> 100,> 100,> 100,> 100,> 100,> 100,> 100,> 100,> 100,,,,,,
COC(=O)/C=C(\S/C(=C(/c1ccccc1)n1cc(C(=O)OC)c(C(=O)OC)n1)c1ccccc1)C(=O)OC,> 100,31.9,5.25,35.8,94,12.6,10.6,29.8,18.6,3.88,32.1,> 100,,,,,,
COC(=O)C(NC(=O)C12CCC(C)(C(=O)O1)C2(C)C)c1cc(C(C)(C)C)c(O)c(C(C)(C)C)c1 (configuration not stated),,> 100,> 100,> 100,> 100,32.1,> 100,> 100,> 100,> 100,> 100,> 100,,,,,,
CCC1c2[nH]c3ccccc3c2C[C@H]2C(=O)NC(Cc3ccccc3)C(=O)N12 (some centres not stated),,43.1,> 100,41.4,38.8,47.8,> 100,86.1,52.6,> 100,95,74.9,,,,,,

Structure (SMILES),TGI [1] [µM],TGI [2] [µM],TGI [3] [µM],TGI [4] [µM],TGI [5] [µM],TGI [6] [µM],TGI [7] [µM],TGI [8] [µM],TGI [9] [µM],TGI [10] [µM],TGI [11] [µM],TGI [12] [µM],GI50 [2] [µM],GI50 [3] [µM],GI50 [6] [µM],GI50 [7] [µM],GI50 [9] [µM],GI50 [11] [µM]
O=C(N/N=C1\CCc2ccccc21)N/N=C1\CCc2ccccc21,> 100,> 100,> 100,> 100,> 100,> 100,> 100,26.3,> 100,> 100,,> 100,,,,,,
CCCN=C1S/C(=C/c2ccc(OC)c(OC)c2)C(=O)N1c1ccccc1,> 100,> 100,98.6,85.8,> 100,> 100,> 100,> 100,> 100,> 100,> 100,95,,,,,,
O=Cc1cc(O)ccc1Br,> 100,> 31.6,> 81,> 93.2,50.4,5.39,60,> 92.2,67.5,53.7,> 100,> 91.7,,,,,,
O=C(O)c1ccccc1/C=C1\Cc2ccc3c(c2C1=O)CCCC3,> 100,> 100,> 100,88.7,46.5,62.3,> 100,81.1,> 100,> 100,> 100,82.7,,,,,,
Nc1nc(SCC(=O)c2ccccc2)nc2nc3c(c(-c4ccccc4)c12)CCCC3,> 100,> 100,> 100,> 100,> 100,> 100,> 100,> 100,> 100,89,> 100,62.7,,,,,,
Nc1nc(Cl)cc(NCC2(CO)CC(O)C2)n1 (configuration not stated),> 100,> 100,> 100,> 100,> 100,> 100,> 100,,> 100,> 100,> 100,> 100,,,,,,
COc1cccc2c(=O)c3c(O)c4cc(N(C)C)ccc4c(OC(C)=O)c3oc12,50.2,8.96,36.4,46.9,28,14.2,32.8,29.9,27.1,37.4,25.8,75.3,,,,,,
CC1(c2nc3ccccc3[nH]2)CCC(CO)C(C)(C)O1 (configuration not stated),,> 100,> 100,> 100,> 100,> 100,> 100,> 100,> 100,> 100,> 100,> 100,,,,,,
COC(=O)C1(Cc2ccccc2C)Cc2ccc(C)cc2C1=O (configuration not stated),> 100,72.6,> 100,47.7,> 100,30.9,> 100,> 100,57.5,> 100,> 100,> 100,,,,,,
O=C(CN1c2ccccc2Sc2ccccc21)n1cnc2ccccc21,> 100,> 100,> 100,> 100,> 100,> 100,> 100,> 100,> 100,> 100,> 100,> 100,,,,,,
N#Cc1c(-c2ccccc2)cc(Nc2ccc(F)cc2)n2c1nc1ccccc12,> 100,> 28.4,6.66,4.35,14.8,> 100,10.6,> 100,6.43,> 32.7,> 29.1,> 24,,,,,,
CC1(C)O[C@@H]([C@@H](O)[C@H](O)C2SCCCS2)[C@@H](CO)O1,> 100,> 100,> 100,> 100,> 100,> 100,> 100,> 100,> 100,> 100,> 100,> 100,,,,,,
c1cc(-c2ccc(Oc3ccc(-c4ccncc4)cc3)cc2)ccn1,> 94.2,> 44,> 100,> 100,> 100,11.1,> 100,> 100,> 49.6,> 100,> 67.1,> 100,,,,,,
COC(=O)c1c(OC(C)=O)ccc2c1c1c(n2Cc2ccccc2)C(=O)c2ccccc2C1=O,> 100,50.7,> 100,36.2,48.8,57.2,> 100,47.5,32.3,89.1,48.3,49.3,,,,,,
C=CCSC1=N/C(=C\c2ccco2)C(=O)N1CC=C,> 100,> 100,> 100,> 100,> 100,60.2,> 100,> 100,> 100,> 100,> 100,> 100,,,,,,
C[N+](C)(C)C(Cc1c[nH]c(=S)[nH]1)C(=O)O (configuration not stated),> 100,> 100,> 100,> 100,> 100,> 100,> 100,> 100,> 100,> 100,> 100,> 100,,,,,,
CCOC(=O)c1cc(NC(=O)c2ccccc2)c(=O)n2c(cc3c(Cl)cccc32)c1O,> 100,> 100,> 100,> 100,> 100,> 100,> 100,> 100,> 100,> 100,> 100,> 100,,,,,,
C=C1C(=O)OC2C3C(=C)[C@@H](OC(C)=O)CC3C(C)=CC(OC(=O)C(C)(O)C(C)OC(C)=O)[C@@H]12 (some centres not stated),44,20.2,24.9,20.6,25.8,5.57,24.8,19.7,19.4,37.9,30.2,48.4,,,,,,
O=C1c2cc([N+](=O)[O-])cnc2S(=O)(=O)N1c1ccc(Oc2ccccc2)cc1,> 100,> 100,> 100,> 100,> 100,> 100,> 100,> 100,,> 100,> 100,> 100,,,,,,
